The test system of series [1] is dendritic cells. As to the kind of experiment: Dendritic cell activation. The series is classed as cell-based, human. Particulars: 48 h surfactant incubation, compared to LPS activated DC and no-treatment control. The protocol: Dendritic cell activation: Human whole blood was used to extract monocytes using MACS (magnetic activated cell sorting) according to manufacturer's instructions (Miltenyi Biotec Order no. 130-114-980). Cells were incubated for 6 days in respective differentiation media (Miltenyi DC differentiation medium order no. 130-094-812) resulting in dendritic cells. Cells were incubated in medium with surfactants in question for 48 h and subsequently stained for cell activation using fluorescently labeled antibodies (Mouse Anti-Human CD14 PerCP-Cy5.5 order no. 562692 from BD to check monocyte negative; Mouse Anti-Human CD11c BV605 from BD to check dendritic cell differentiation and Mouse Anti-Human CD80 FITC order no. 557226 from BD to check cell activation).

In series [2] the test system is Platelets. As to the kind of experiment: Inhibition of platelet aggregation, Whole Blood Aggregometry (WBA). The series is classed as cell-based, human. As to conditions: 0.04% or 0.01% surfactant, 10 minutes at 37° C.; agonists AA, TRAP6, collagen, ADP. The protocol:
Human whole blood of 6 healthy volunteers was incubated with 0.04% or 0.01% surfactants for 10 minutes at 37° C. Saline solution was used as negative control. Platelets were activated with four independent agonists: arachidonic acid (AA), thrombin receptor activator peptide (TRAP6), collagen and ADP. Aggregation was measured through Whole Blood Aggregometry (WBA).
Whole Blood Aggregometry (WBA) consists of immerging electrodes into whole blood which measure the impedance between them. The addition of a platelet agonist activates the aggregation, resulting in an increase of impedance over time. This increase can be compared between a negative control and a testing sample to derive the degree of platelet inhibition.

In series [3] the test system is Protein 5. As to the kind of experiment: Protein stabilization, purity by SEC-UPLC. As to conditions: Protein 5 formulation, 0.2% PLX188 or 0.04% PS20, PS80 or VEDS, one month at 30° C. The series is classed as physicochemical. The procedure: A liquid formulation containing Protein 5 was prepared as herein described. […] (FIG. 8). A pull point was taken after this time and used for the following analysis.
For orientation: SEC sorts molecules by how far they enter the pores of the column.

The nature of series [4]: Surfactant stability under oxidative stress (H2O2). Type of series: physicochemical. Particulars: 0.25 M and 2.5 M H2O2, 6 days at 40° C., vs non-treated control. The protocol:
(§1) Polysorbate 20/80 suffers from chemical and enzymatic degradation mechanisms as described earlier. In order to test the amphiphilic surfactants of the disclosure for stability against oxidative and hydrolytic stress, the following forced degradation assay was performed using hydrogen peroxide and various buffers to mimic those stress conditions. The aim was to mimic chemical degradation pathways that surfactants would encounter during shelf life.
(§2) H2O2(0.25 M and 2.5 M) was added to formulations containing surfactants and subsequently incubated for 6 days at 40° C. in order to mimic oxidative stress. In addition, surfactants were added to different buffer types (e.g., histidine, citrate, phosphate and succinate buffer) and exposed to accelerated degradation stress such as temperature stress (50° C. for 1 month) at different pH (5.5 and 6.5) in order to mimic chemical degradation pathways (e.g., oxidation, hydrolysis). Control samples were frozen to avoid degradation (FZ). Chromatography methods were used to determine the surfactant content of formulations after accelerated conditions by comparing it to the amount of surfactant spiked into the buffer at the beginning of the experiment.

Series [5] concerns host cell proteins (HCPs) of Protein 4. As to the kind of experiment: Enzymatic degradation of surfactant in protein 4 formulation. The series is classed as physicochemical. As to conditions: 0.02% PS80 or 0.04% other surfactants, one month at 5° C. or 40° C., HPLC. The source says: Therefore, a formulation containing protein 4 also contains the enzymes responsible for polysorbate degradations and it is a suitable proxy for testing the propensity of enzymatic degradation during shelf life in real-world conditions.

Series [6] is described as follows: Surfactant stability under pH and temperature stress in different buffers. The series is classed as physicochemical. As to conditions: pH 5.5 and 6.5, 50° C. for 1 month, vs frozen control (FZ). The protocol: as §1, §2
Series [7] can be described thus: Quiescence stability study, oxidative and hydrolytic degradation of surfactant in Protein 2 formulation. Particulars: six months at 25° C.; for surfactant content left: HPLC main peak.
Procedure: A pull point was taken every month and a half (TO, T1.5m, T3m, T4.5m and T6m) and frozen for storage.
The surfactant content was measured for all pull points of a specific surfactant in a single series by HPLC and the analysis was performed by a standard baseline correction followed by integration of the main peak, representing the integer (not degraded) surfactant.
Series [8] has as its system protein 1. As to the kind of experiment: Equilibrium surface tension, pendant-drop tensiometer (protein displacement at air/water interface). Type of series: physicochemical. As to conditions: surfactant in histidine buffer, absence or presence of protein 1, compared with protein 1 without surfactant; 60 min. The procedure: The aim of this experiment was to investigate the type of stabilization mechanism which the surfactants employ in protein-containing formulations. A Pendant-Drop Tensiometer was utilized to determine protein (API) displacement by surfactants at the air/water interface. Surfactant interface saturation mitigates the risk of interfacial stress for proteins and associated negative effects potentially impacting protein quality attributes.
The protein corresponding buffer was prepared and sterile filtered using a 0.22 μm filter unit. The surfactant in question was added into the buffer using a 5% stock solution as described earlier.
The buffer surfactant mix was aliquoted in 2 Nalgene bottles. To one of the two bottles was added the respective API in question to reach a final concentration of 1 mg/mL for protein 1 and 10 mg/mL for proteins 2 and 3.
Equilibrium surface tension was measured using the PAT-1M tensiometer (Sinterface). The system was rinsed 12 times with the sample to be measured. A hanging drop of constant volume (20 μL) was measured every second for 60 min. Drug substance samples with and without surfactants were measured at the same day to avoid operator, sample and day to day variations.

Series [9] relates to Basophile cells. The experiment in a line: Basophile activation assay (B-cell activation). Type of series: cell-based, human. Particulars: compared to polysorbate and B-cell activating positive control. The protocol:
Basophile activation assay: Human whole blood was used to purify B-cells using an in vitro B-cell activation kit (Cellonic, Basotest, Cat #10-0500). Basophile cells were incubated in 100 μL 1×wash buffer containing the final surfactant concentration as the correct dilutions were prepared beforehand. Cell labeling, lysis and fixation was performed according to manufacturer instructions and subsequently analyzed using a BD FORTESSA flow cytometer. Leucocytes are gated via forward and sideward scatter. The Basophile subpopulation was gated on CD123 and IgE staining. Finally, activated Basophile cells were identified via CD203c and CD63 gating. All fluorescently labeled antibodies were provided in the kit stated above.

In series [10] the test system is protein 1 (disordered protein). The experiment in a line: Orbital shaking forced degradation, particle count by micro-flow-imaging, Protein 1. The series is classed as physicochemical. As to conditions: orbital shaking 250 rpm, ambient temperature, 0 h, 7 h and 24 h. The protocol:
The API corresponding buffer was prepared with 20 mM Histidine, 220 mM Succrose pH 5.8 in water.
The aim of this experiment was to investigate the effect of amphiphilic surfactants to protect proteins from interfacial stress, such as that which is present during manufacturing, transport and application. As a proxy for this stress the forced degradation assay (orbital shaking), applying mechanical stress, was used in order to determine whether chosen surfactants stabilize three different protein API's (disordered protein, Fab, mAb) against mechanical stress (mitigating particle creation (protein aggregates)).
1.2 mL of sample was aliquoted in each 6R vial (2x). Vials of same sample were pooled after the study in order to generate enough volume for all analytical testing.
Mechanical stress was generated through orbital shaking at 250 rpm at ambient temperature for 0 h, 7 h, 24 h and 48 h using an orbital shaker. Samples were subsequently analyzed via micro-flow-imaging (MFI). Particle count >2 μm/mL was visualized by MF.

Entries after “also recorded” stand apart in the source; their conditions may differ.

Vitamin E dimethyl glutarate [VEDG3.3]: in [1] (listed as VEDG 3.3), the “mean fluorescence intensity (MFI) fold change, dendritic cell (DC) activation” value is “perform better than TPGS1000; also recorded: no DC activation”. The “inhibition of platelet aggregation” value in [2] is listed as “comparable platelet inhibition values as PS80”.

As for Polysorbate 20 [PS20], in series [3], the “protein purity, relative comparison between surfactants” value is reported as “lower purity” and the “sum of impurities, relative comparison between surfactants” value is on record as “higher impurities”.

For the substance Polysorbate 80 [PS80], the “surfactant content after oxidative stress (H2O2)” value in series [4] is given as “stable; also recorded: minor loss”. Moreover, the “surfactant content (enzymatic degradation by HCPs)” value in series [5] was “Degradation is observed both at 5 °C and 40 °C”. Further, the “surfactant content after pH and temperature stress” value in series [6] (citrate buffer) was “stable”; in [6] (histidine buffer), “decreased content”; in series [6] (phosphate buffer), “decreased content”; in series [6] (succinate buffer) it was “decreased content”. This substance also yielded a surfactant content left in [7] of about 5%.

As for Vitamin E dimethyl glutarate [VEDG2.2], the “mean fluorescence intensity (MFI) fold change, dendritic cell (DC) activation” value in series [1] (listed as VEDG 2.2) was “perform better than TPGS1000; also recorded: no DC activation”. Also, in series [8], the “equilibrium surface tension / surface activity” value is reported as “even higher surface activity resulting in significant drop of surface tension”. In series [5], the “surfactant content (enzymatic degradation by HCPs)” value is recorded as “not affected by enzymatic degradation”. Moreover, the “number of activated B cells (%) upon surfactant treatment” value in [9] is on record as “lower level of B-cell activation than TPGS1000”. In series [7], the surfactant content left is on record as 88-90%. Besides, the “susceptibility to chemical degradation (surfactant content over time)” value in series [7] (pull points every 1.5 months) is given as “minimal susceptibility to chemical degradation”. The “particle count >2 μm/mL” value in [10] is on record as “perform better than TPGS-1000”.

Values taken from US20250332263A1, “SURFACTANT STABILIZERS” (NOVARTIS AG, priority 2021, published 2025).
